From PMC6254286, “Quantitative Structure − Antiprotozoal Activity Relationships of Sesquiterpene Lactones ^†” (Molecules, 2009)

Test system: K1 strain of P. falciparum
Experiment: Antiplasmodial [3H]-hypoxanthine incorporation assay
Type: cell-based, Plasmodium falciparum
Settings: Plasmodium falciparum, K1, K1 strain (resistant to chloroquine and pyrimethamine); mean of two independent measurements; read-out: IC50 P. falciparum (Pfc)
Experimental: Plasmodium falciparum. Antiplasmodial activity was determined using the K1 strain of P. falciparum (resistant to chloroquine and pyrimethamine). A modification of the [3H]-hypoxanthine incorporation assay was used. Briefly, infected human red blood cells (final parasitaemia and haematocrit were 0.3% and 1.25%, respectively) in RPMI 1640 medium with 5% Albumax were exposed to serial drug dilutions in microtiter plates. After 48 hours of incubation at 37°C in a reduced oxygen atmosphere, 0.5 mCi 3H-hypoxanthine was added to each well. Cultures were incubated for a further 24 h before they were harvested onto glass-fiber filters and washed with distilled water. The radioactivity was counted using a BetaplateTM liquid scintillation counter (Wallac, Zurich, Switzerland). […] From the sigmoidal inhibition curves IC50 values were calculated. Assays were run in duplicate and repeated once.

Compared with `C=C1C(=O)OC2CC(C)C3C(OC(C)=O)CC(O)C3(COC(C)=O)CC12` (stereo not drawn) [Compound 16], `C=C1C(=O)OC2CC(C)C3C(OC(C)=O)CC(O)C3(C)CC12` (stereo not drawn) [Compound 10] is 1.7-fold lower in IC50: 10.7 µM for the first, 6.46 µM for the second.

`C=C1C(=O)OC2CC(C)C3(O)C=C(C(C)=O)C4(CC3CC12)C(=O)OC1CC(C)C2(C=CC(C)=O)OC2CC14` (stereo not drawn) [Compound 22] and `C=C1C(=O)OC2CC(C)C3(O)C=C(C(C)=O)C4(CC3CC12)C(=O)OC1CC(C)C(C=CC(C)=O)=CCC14` (stereo not drawn) [Compound 21] are within 1.5-fold of each other in IC50: 6.53 µM for the first, 4.96 µM for the second.

Test system: Trypanosoma brucei rhodesiense STIB 900
Experiment: In vitro activity against T. brucei rhodesiense bloodstream forms (Alamar blue)
Type: cell-based
Settings: Trypanosoma brucei, 72 h, bloodstream forms STIB 900, 72 h; mean of two independent measurements; read-out: IC50 T. brucei rhodes. (Tbr)
Experimental: (§1) Trypanosoma brucei rhodesiense and cytotoxicity against L6 cells. Minimum Essential Medium with Earle’s salts (50 µL) supplemented with 0.2 mM 2-mercapto-ethanol, 1 mM Na-pyruvate and 15% heat-inactivated horse serum was added to each well of a 96-well microtiter plate. […] Then 10^4 bloodstream forms of Trypanosoma brucei rhodesiense STIB 900 in 50 µL of medium were added to each well and the plate incubated at 37°C under a 5% CO2 atmosphere for 72 hours. […] The plate was then read in a Spectramax Gemini XS microplate fluorometer (Molecular Devices Corporation, Sunnyvale, CA, USA) using an excitation wavelength of 536 nm and emission wavelength of 588 nm. Fluorescence development was measured and expressed as percentage of the control. Data were transferred into the graphic programme Softmax Pro (Molecular Devices) which calculated IC50 values. Cytotoxicity was assessed using a similar protocol and rat skeletal myoblasts (L6 cells). […] All following steps were according to the T. b. rhodesiense protocol.

Compared with `C=C1C(=O)OC2CC3(C)CC(O)CC(=C)C3CC12` (stereo not drawn) [Compound 26], `C=C1C(=O)OC2CC3(C)CCCC(=C)C3CC12` (stereo not drawn) [Compound 25] is 3-fold higher in IC50: 7.8 µM for the first, 23.6 µM for the second.

First: C=C1C(=O)OC2CC(C)C3C(OC(C)=O)CC(O)C3(COC(C)=O)CC12 (stereo not drawn) [Compound 16]
Second: C=C1C(=O)OC2CC(C)C3C(OC(C)=O)CC(O)C3(C)CC12 (stereo not drawn) [Compound 10]
The IC50 of the first is 2-fold higher: 13.6 µM for the first, 6.71 µM for the second.

Going from `C=C1C(=O)OC2CC(C)C3(O)C=C(C(C)=O)C4(CC3CC12)C(=O)OC1CC(C)C2(C=CC(C)=O)OC2CC14` (stereo not drawn) [Compound 22] to `C=C1C(=O)OC2CC(C)C3(O)C=C(C(C)=O)C4(CC3CC12)C(=O)OC1CC(C)C(C=CC(C)=O)=CCC14` (stereo not drawn) [Compound 21], the IC50 falls from 1.29 µM to 0.638 µM (2-fold). The second is the more potent here.

Test system: Leishmania donovani amastigotes (strain MHOM/ET/67/L82)
Experiment: L. donovani axenic amastigote assay (resazurin)
Type: cell-based
Settings: Leishmania donovani, 72 h, pH 5.4, axenic amastigotes, pH 5.4, 72 h; mean of two independent measurements; read-out: IC50 L. donovani (Ldon)
Experimental: Leishmania donovani (axenic amastigote assay). […] Serial drug dilutions in duplicates were prepared covering a range from 30 to 0.041 µg/mL. […] The compounds used as positive controls in the various bioassays (see Table 1) were of commercial origin, with the exception of melarsoprol, which was a gift from WHO. Their purity (generally > 95%) was specified by the manufacturers.

`C=C1C(=O)OC2CC3(C)CC(O)CC(=C)C3CC12` (stereo not drawn) [Compound 26] and `C=C1C(=O)OC2CC3(C)CCCC(=C)C3CC12` (stereo not drawn) [Compound 25] cannot be ordered by IC50: > 4 µM for the first, > 14 µM for the second.

`C=C1C(=O)OC2CC(C)C3C(OC(C)=O)CC(O)C3(COC(C)=O)CC12` (stereo not drawn) [Compound 16] and `C=C1C(=O)OC2CC(C)C3C(OC(C)=O)CC(O)C3(C)CC12` (stereo not drawn) [Compound 10] are within 1.5-fold of each other in IC50: 11.8 µM for the first, 12.2 µM for the second.

`C=C1C(=O)OC2CC(C)C3(O)C=C(C(C)=O)C4(CC3CC12)C(=O)OC1CC(C)C2(C=CC(C)=O)OC2CC14` (stereo not drawn) [Compound 22] and `C=C1C(=O)OC2CC(C)C3(O)C=C(C(C)=O)C4(CC3CC12)C(=O)OC1CC(C)C(C=CC(C)=O)=CCC14` (stereo not drawn) [Compound 21] are within 1.5-fold of each other in IC50: 26.9 µM for the first, 22 µM for the second.

Test system: T. cruzi Tulahuen strain C2C4
Experiment: In vitro activity against T. cruzi in L-6 host cells (beta-galactosidase/CPRG)
Type: cell-based, Trypanosoma cruzi
Settings: Trypanosoma cruzi, TULAHUEN, L6, 96 h, Tulahuen C2C4 in L-6 cells, 96 h; mean of two independent measurements; read-out: IC50 T. cruzi (Tcr)
Experimental: Trypanosoma cruzi. Rat skeletal myoblasts (L-6 cells) were seeded in 96-well microtiter plates at 2,000 cells/well in 100 µL RPMI 1640 medium with 10% FBS (fetal bovine serum) and 2 mM L-glutamine. After 24 hours the medium was removed and replaced by 100 µL per well containing 5,000 trypomastigote forms of T. cruzi Tulahuen strain C2C4 containing the β-galactosidase (Lac Z) gene. Fortyeight hours later the medium was removed from the wells and replaced by […] fresh medium with or without a serial drug dilution. Seven 3-fold dilutions were used covering a range from […]. Each drug was tested in duplicate. After 96 hours of incubation the plates were inspected under an inverted microscope to assure growth of the controls and sterility. Then the substrate CPRG/ Nonidet (50 µL) was added to all wells. A colour reaction developed within 2-6 hours and could be read photometrically at 540 nm.

`C=C1C(=O)OC2CC3(C)CC(O)CC(=C)C3CC12` (stereo not drawn) [Compound 26] and `C=C1C(=O)OC2CC3(C)CCCC(=C)C3CC12` (stereo not drawn) [Compound 25] are within 1.5-fold of each other in IC50: 24.8 µM for the first, 22.3 µM for the second.

Compared with `C=C1C(=O)OC2CC(C)C3C(OC(C)=O)CC(O)C3(COC(C)=O)CC12` (stereo not drawn) [Compound 16], `C=C1C(=O)OC2CC(C)C3C(OC(C)=O)CC(O)C3(C)CC12` (stereo not drawn) [Compound 10] is 2.2-fold lower in IC50: 44.9 µM for the first, 20.4 µM for the second.

First: C=C1C(=O)OC2CC(C)C3(O)C=C(C(C)=O)C4(CC3CC12)C(=O)OC1CC(C)C2(C=CC(C)=O)OC2CC14 (stereo not drawn) [Compound 22]
Second: C=C1C(=O)OC2CC(C)C3(O)C=C(C(C)=O)C4(CC3CC12)C(=O)OC1CC(C)C(C=CC(C)=O)=CCC14 (stereo not drawn) [Compound 21]
The IC50 of the first is 5.9-fold higher: 95.4 µM for the first, 16.1 µM for the second. The second is the more potent here.

Test system: not listed separately
Experiment: in vitro
Settings: rat
Experimental: as §1

With `C=C1C(=O)OC2CC3(C)CCCC(=C)C3CC12` (stereo not drawn) [Compound 25] the IC50 at 72 h was 4.48 µM.

Same assay, conditions: rat, IC50 Cytotoxicity (L6), L6 rat skeletal myoblasts, 72 h; mean of two independent measurements

Work on `C=C1C(=O)OC2CC(C)C3C(OC(C)=O)CC(O)C3(C)CC12` (stereo not drawn) [Compound 10] yielded an IC50 of 4.39 µM.

Same assay, conditions: rat, L6 cells (rat skeletal myoblasts)

Going from `C=C1C(=O)OC2CC3(C)CC(O)CC(=C)C3CC12` (stereo not drawn) [Compound 26] to `C=C1C(=O)OC2CC(C)C3C(OC(C)=O)CC(O)C3(COC(C)=O)CC12` (stereo not drawn) [Compound 16], the IC50 at 72 h rises from 0.948 µM to 21.6 µM (23-fold).

`C=C1C(=O)OC2CC(C)C3(O)C=C(C(C)=O)C4(CC3CC12)C(=O)OC1CC(C)C2(C=CC(C)=O)OC2CC14` (stereo not drawn) [Compound 22] and `C=C1C(=O)OC2CC(C)C3(O)C=C(C(C)=O)C4(CC3CC12)C(=O)OC1CC(C)C(C=CC(C)=O)=CCC14` (stereo not drawn) [Compound 21] are within 1.5-fold of each other in IC50 at 72 h: 13.3 µM for the first, 9.43 µM for the second.

Test system: rat skeletal myoblasts (L6 cells)
Experiment: Cytotoxicity against L6 cells (Alamar blue)
Settings: protozoa, especially Tbr, versus L6 mammalian cells
Experimental: as §1

For `C=C1C(=O)OC2CC3(C)CC(O)CC(=C)C3CC12` (stereo not drawn) [Compound 26], the “antiparasitic activity compared with cytotoxicity (in words)” value was “considerably more toxic against the mammalian cells than against the protozoa”.
With `C=C1C(=O)OC2CC3(C)CCCC(=C)C3CC12` (stereo not drawn) [Compound 25] the “antiparasitic activity compared with cytotoxicity (in words)” value was “considerably more toxic against the mammalian cells than against the protozoa”.
